Assay results: patent publication US11479551B2, “MTA-cooperative PRMT5 inhibitors” (Mirati Therapeutics, Inc., priority 2019, dated 2022)
Read-outs that look alike come from different tables or passages of the source.

Target: PRMT5/MEP50 complex (Homo sapiens (Human), UniProt O14744)
Experiment: PRMT5:MEP50 FlashPlate Assay (histone H4 peptide substrate, plus and minus MTA)
Format: biochemical
Procedure: The PRMT5 inhibitory activity of compounds of the present invention was determined using either a PRMT5:MEP50 FlashPlate Assay (Reaction Biology Corporation) or a PRMT5:MEP50 HotSpot Assay (Reaction Biology Corporation).
1. PRMT5:MEP50 FlashPlate Assay

[1] = IC50 + 2 μM MTA (nM), in the presence of 2 μM MTA
[2] = in the absence of MTA, read-out: IC50

PRMT5/MEP50 complex, sequence (O14744 2-637): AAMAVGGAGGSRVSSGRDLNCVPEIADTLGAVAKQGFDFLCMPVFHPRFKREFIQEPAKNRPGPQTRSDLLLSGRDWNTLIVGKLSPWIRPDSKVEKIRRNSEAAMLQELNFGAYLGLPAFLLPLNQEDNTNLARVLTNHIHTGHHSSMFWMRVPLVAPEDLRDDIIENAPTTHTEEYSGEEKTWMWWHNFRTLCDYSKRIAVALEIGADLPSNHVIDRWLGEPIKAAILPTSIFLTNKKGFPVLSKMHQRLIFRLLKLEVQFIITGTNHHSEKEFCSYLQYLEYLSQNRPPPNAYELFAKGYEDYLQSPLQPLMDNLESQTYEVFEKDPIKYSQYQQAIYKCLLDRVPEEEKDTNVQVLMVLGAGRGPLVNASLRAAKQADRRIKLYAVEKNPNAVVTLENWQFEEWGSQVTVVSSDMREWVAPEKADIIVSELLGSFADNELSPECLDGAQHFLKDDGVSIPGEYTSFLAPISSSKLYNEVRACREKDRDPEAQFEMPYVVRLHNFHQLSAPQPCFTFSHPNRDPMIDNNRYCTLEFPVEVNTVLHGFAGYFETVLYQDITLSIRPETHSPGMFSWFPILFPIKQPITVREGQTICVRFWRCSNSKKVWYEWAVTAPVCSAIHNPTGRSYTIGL
PRMT5/MEP50 complex, sequence (Q9BQA1 2-342 partner): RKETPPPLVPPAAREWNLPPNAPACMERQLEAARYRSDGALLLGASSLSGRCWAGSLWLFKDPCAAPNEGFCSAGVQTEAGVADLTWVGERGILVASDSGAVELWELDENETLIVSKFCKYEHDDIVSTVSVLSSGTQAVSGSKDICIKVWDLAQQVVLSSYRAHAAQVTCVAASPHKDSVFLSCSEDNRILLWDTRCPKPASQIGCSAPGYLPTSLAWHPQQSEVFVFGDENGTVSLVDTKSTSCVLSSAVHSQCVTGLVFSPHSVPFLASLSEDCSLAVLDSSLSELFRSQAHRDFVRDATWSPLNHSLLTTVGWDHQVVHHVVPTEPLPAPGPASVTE

SMILES	IC50 [1] [nM]	IC50 [2] [nM]
CC(=O)N1CCn2ncc(-c3ccc4c(=O)[nH]nc(CN)c4c3)c2C1 [Example 4-84, 6-(5-acetyl-4,5,6,7-tetrahydropyrazolo[1,5-a]pyrazin-3-yl)-4-(aminomethyl)phthalazin-1(2H)-one]	93	4040
NCc1n[nH]c(=O)c2ccc(-c3cnn4c3CN(C(=O)C3CC3)CC4)cc12 [Example 4-85, 4-(aminomethyl)-6-(5-(cyclopropanecarbonyl)-4,5,6,7-tetrahydropyrazolo[1,5-a]pyrazin-3-yl)phthalazin-1(2H)-one]	29	1910
NCc1n[nH]c(=O)c2ccc(-c3cnn4c3CN(C(=O)C3CCC3)CC4)cc12 [Example 4-86, 4-(aminomethyl)-6-(5-(cyclobutanecarbonyl)-4,5,6,7-tetrahydropyrazolo[1,5-a]pyrazin-3-yl)phthalazin-1(2H)-one]	11	731
NCc1n[nH]c(=O)c2ccc(-c3cnn4c3CN(C(=O)C3CCCC3)CC4)cc12 [Example 4-87, 4-(aminomethyl)-6-(5-(cyclopentanecarbonyl)-4,5,6,7-tetrahydropyrazolo[1,5-a]pyrazin-3-yl)phthalazin-1(2H)-one]	22	1590
NCc1n[nH]c(=O)c2ccc(-c3cnn4c3CN(C(=O)C3CCCCC3)CC4)cc12 [Example 4-88, 4-(aminomethyl)-6-(5-(cyclohexanecarbonyl)-4,5,6,7-tetrahydropyrazolo[1,5-a]pyrazin-3-yl)phthalazin-1(2H)-one]	45	1710
NCc1n[nH]c(=O)c2ccc(-c3cnn4c3CN(C(=O)C35CC(C3)C5)CC4)cc12 [Example 4-89, 4-(aminomethyl)-6-(5-(bicyclo[1.1.1]pentane-1-carbonyl)-4,5,6,7-tetrahydropyrazolo[1,5-a]pyrazin-3-yl)phthalazin-1(2H)-one]	64	1220
NCc1n[nH]c(=O)c2ccc(-c3cnn4c3CN(C(=O)c3ccccc3)CC4)cc12 [Example 4-90, 4-(aminomethyl)-6-(5-benzoyl-4,5,6,7-tetrahydropyrazolo[1,5-a]pyrazin-3-yl)phthalazin-1(2H)-one]	82	2730
Cn1ncc(-c2ccc3c(=O)[nH]nc(CN)c3c2)c1-c1cccc(F)c1 [Example 4-91, 4-(aminomethyl)-6-(5-(3-fluorophenyl)-1-methyl-1H-pyrazol-4-yl)phthalazin-1(2H)-one]	16	249
Cn1ncc(-c2ccc3c(=O)[nH]nc(CN)c3c2)c1-c1cccc(Cl)c1 [Example 4-92, 4-(aminomethyl)-6-(5-(3-chlorophenyl)-1-methyl-1H-pyrazol-4-yl)phthalazin-1(2H)-one]	3.5	137
Cn1ncc(-c2ccc3c(=O)[nH]nc(CN)c3c2)c1-c1ccc(F)cc1 [Example 4-95, 4-(aminomethyl)-6-(5-(4-fluorophenyl)-1-methyl-1H-pyrazol-4-yl)phthalazin-1(2H)-one]	4.9	228
Cc1ccc(-c2c(-c3ccc4c(=O)[nH]nc(CN)c4c3)cnn2C)cc1 [Example 4-97, 4-(aminomethyl)-6-(1-methyl-5-(p-tolyl)-1H-pyrazol-4-yl)phthalazin-1(2H)-one]	1.6	49
Cc1ccc(-c2c(-c3ccc4c(=O)[nH]nc(CN)c4c3)cnn2C)cn1 [Example 4-99, 4-(aminomethyl)-6-(1-methyl-5-(6-methylpyridin-3-yl)-1H-pyrazol-4-yl)phthalazin-1(2H)-one]	15	547
NCc1n[nH]c(=O)c2ccc(-c3cncn3Cc3ccccc3)cc12 [Example 4-108, 4-(aminomethyl)-6-(1-benzyl-1H-imidazol-5-yl)phthalazin-1(2H)-one]	900	8650
Cc1ncc(-c2ccc3c(=O)[nH]nc(CN)c3c2)n1CC#N [Example 4-109, 2-(5-(4-(aminomethyl)-1-oxo-1,2-dihydrophthalazin-6-yl)-2-methyl-1H-imidazol-1-yl)acetonitrile]	120	4870
Cc1nc2cncc(-c3ccc4c(=O)[nH]nc(CN)c4c3)c2o1 [Example 4-110, 4-(aminomethyl)-6-(2-methyloxazolo[4,5-c]pyridin-7-yl)phthalazin-1(2H)-one]	1000	–
NCc1n[nH]c(=O)c2ccc(-c3cncc([S+]([O-])c4ccccc4)c3)cc12 (stereo not drawn) [Example 4-111, 4-(aminomethyl)-6-(5-(phenylsulfinyl)pyridin-3-yl)phthalazin-1(2H)-one]	12	472
NCc1n[nH]c(=O)c2ccc(C3CCCC3)cc12 [Example 5-1, 4-(aminomethyl)-6-cyclopentylphthalazin-1(2H)-one]	72000	> 100000
NCc1n[nH]c(=O)c2ccc(-n3ccnc3)cc12 [Example 6-1, 4-(aminomethyl)-6-imidazol-1-yl-2H-phthalazin-1-one]	5800	> 100000
CCCNc1ccc2c(CN)n[nH]c(=O)c2c1 [Example 6-2]	> 100000	> 100000
NCc1n[nH]c(=O)c2cc(Nc3ccccc3)ccc12 [Example 6-3, 4-(aminomethyl)-7-anilino-2H-phthalazin-1-one]	9400	> 100000
NCc1n[nH]c(=O)c2cc(NCc3ccccc3)ccc12 [Example 6-4, 4-(aminomethyl)-7-(benzylamino)-2H-phthalazin-1-one]	19000	–
NCc1n[nH]c(=O)c2ccc(N3CCOCC3)cc12 [Example 6-5, 4-(aminomethyl)-6-morpholino-2H-phthalazin-1-one]	> 100000	> 100000

Second part, the compound after the results:

IC50 [1] [nM]	IC50 [2] [nM]	SMILES
490	11200	NCc1n[nH]c(=O)c2ccc(-c3cncc(Oc4ccncc4)c3)cc12 [Example 7-1, 4-(aminomethyl)-6-(5-(pyridin-4-yloxy)pyridin-3-yl)phthalazin-1(2H)-one]
16	246	N#Cc1ccccc1Oc1cncc(-c2ccc3c(=O)[nH]nc(CN)c3c2)c1 [Example 7-2, 2-((5-(4-(aminomethyl)-1-oxo-1,2-dihydrophthalazin-6-yl)pyridin-3-yl)oxy)benzonitrile]
15	388	NCc1n[nH]c(=O)c2ccc(-c3cncc(Oc4ccc(F)cc4)c3)cc12 [Example 7-3, 4-(aminomethyl)-6-(5-(4-fluorophenoxy)pyridin-3-yl)phthalazin-1(2H)-one]
5.6	151	NCc1n[nH]c(=O)c2ccc(-c3cncc(Oc4ccc(Cl)cc4)c3)cc12 [Example 7-4, 4-(aminomethyl)-6-(5-(4-chlorophenoxy)pyridin-3-yl)phthalazin-1(2H)-one]
2	64	Cc1ccc(Oc2cncc(-c3ccc4c(=O)[nH]nc(CN)c4c3)c2)cc1 [Example 7-5, 4-(aminomethyl)-6-(5-(p-tolyloxy)pyridin-3-yl)phthalazin-1(2H)-one]
18	577	N#Cc1ccc(Oc2cncc(-c3ccc4c(=O)[nH]nc(CN)c4c3)c2)cc1 [Example 7-6, 4-((5-(4-(aminomethyl)-1-oxo-1,2-dihydrophthalazin-6-yl)pyridin-3-yl)oxy)benzonitrile]
47	1650	N#Cc1ccc(F)cc1-c1cncc(-c2ccc3c(=O)[nH]nc(CN)c3c2)c1 [Example 8-1, 2-(5-(4-(aminomethyl)-1-oxo-1,2-dihydrophthalazin-6-yl)pyridin-3-yl)-4-fluorobenzonitrile]
36	3150	N#Cc1ccc(-c2cncc(-c3ccc4c(=O)[nH]nc(CN)c4c3)c2)c(C#N)c1 [Example 8-2, 4-(5-(4-(aminomethyl)-1-oxo-1,2-dihydrophthalazin-6-yl)pyridin-3-yl)isophthalonitrile]
2.3	237	COc1ccc(-c2cncc(-c3ccc4c(=O)[nH]nc(CN)c4c3)c2)c(C#N)c1 [Example 8-3, 2-(5-(4-(aminomethyl)-1-oxo-1,2-dihydrophthalazin-6-yl)pyridin-3-yl)-5-methoxybenzonitrile]
3.1	313	N#Cc1cc(Cl)ccc1-c1cncc(-c2ccc3c(=O)[nH]nc(CN)c3c2)c1 [Example 8-4, 2-(5-(4-(aminomethyl)-1-oxo-1,2-dihydrophthalazin-6-yl)pyridin-3-yl)-5-chlorobenzonitrile]
23	691	N#Cc1cc(F)ccc1-c1cncc(-c2ccc3c(=O)[nH]nc(CN)c3c2)c1 [Example 8-5, 2-(5-(4-(aminomethyl)-1-oxo-1,2-dihydrophthalazin-6-yl)pyridin-3-yl)-5-fluorobenzonitrile]
52	2140	N#Cc1ccc(Cl)cc1-c1cncc(-c2ccc3c(=O)[nH]nc(CN)c3c2)c1 [Example 8-6, 2-(5-(4-(aminomethyl)-1-oxo-1,2-dihydrophthalazin-6-yl)pyridin-3-yl)-4-chlorobenzonitrile]
33	931	Cc1ccc(C#N)c(-c2cncc(-c3ccc4c(=O)[nH]nc(CN)c4c3)c2)c1 [Example 8-7, 2-(5-(4-(aminomethyl)-1-oxo-1,2-dihydrophthalazin-6-yl)pyridin-3-yl)-4-methylbenzonitrile]
20	795	COc1ccc(C#N)c(-c2cncc(-c3ccc4c(=O)[nH]nc(CN)c4c3)c2)c1 [Example 8-8, 2-(5-(4-(aminomethyl)-1-oxo-1,2-dihydrophthalazin-6-yl)pyridin-3-yl)-4-methoxybenzonitrile]
25000	89600	N#CCc1ccc2c(CN)n[nH]c(=O)c2c1 [Example 13-1, 2-[1-(aminomethyl)-4-oxo-3H-phthalazin-6-yl]acetonitrile]
